Test results: patent US3971779A, “7-[2-(5-Amino-1,3,4-thiadiazol-2-ylthio)acetamido]cephalosporins” (American Home Products Corporation, priority 1975, dated 1976)
In brackets after ≈: the same amount, converted by molar mass. Several values for one entry are separate records, joined by “and”; a condition that tells them apart may be missing. Equal values may be shown once.

Key:
[1] = system: Acinetobacter calcoaceticus 9957; assay: agar serial dilution MIC; type: cell-based; settings: Example 4, read-out: MIC
Description: (§1) A stock solution of 7-[2-(4,5-dihydro-5-imino-1,3,4-thiadiazol-2-ylthio)acetamido]cephalosporanic acid as the hydrobromic acid addition salt containing 2,500 μg. of the active moiety is prepared in phosphate buffer. Two fold serial dilutions are prepared with phosphate buffer. One milliliter (ml.) quantities of each dilution are incorporated in 9 ml. seen agar in sterile Petri plates. The hardened surface is innoculated with test organisms using a Steers replicating device. The plates are incubated at 35° C. for 18 hours.
(§2) The test organisms are Bacillus subtilis (BA SU) 6633; Staphylococcus aureus (ST AU) 6538P, Smith CHP, and 3-180; Mycobacterium smegmatis (MY SM) 10143; Neisseria catarrhalis (NE CA) 8193; Pseudonomas aeruginosa (PS AE) 10145; Escherichia coli (ES CO) 9637, and 920; Escherichia intermedia (ES IN) 65-1; Salmonella paratyphi (SA PA) 11737; Enterobacter aerogenes (EN AE) 13048; Klebsiella pneumoniae (KL PN) 10031; Bordetella bronchiseptica (BO BR) 4617; Proteus vulgaris (PR VU) 6896; and Herellea species (HE SP) 9955. These organisms are grown for 18 hours in Brain heart infusion at 35° C. Prior to use the cultures are diluted 10 fold with the infusion, except in the case of Mycobacterium. The latter is grown in Emerson's broth for 5 days at 28° C. in shaker flasks and used undiluted.
(§3) Following the procedure of Example 2 but substituting the organisms listed below the same preparation of 7-[2-(4,5-dihydro-5-imino-1,3,4-thiadiazol-2-ylthio)acetamido]cephalosporanic acid (Compound A) as used in Example 3, a third sample of the same compound, prepared as described in Example 1 (Compound B) and 7-[2-(5-acetamido-1,3,4-thiadiazol-2-ylthio)acetamido]cephalosporanic acid (Compound C) are tested to obtain the results shown: […]

Arizona arizonae 13314 = assay: agar serial dilution MIC; type: cell-based; settings: Salmonella enterica, 13314, Example 4
Description: as §1, §2, §3

[2] = system: Citrobacter diversus 27156; assay: agar serial dilution MIC; type: cell-based; settings: Citrobacter koseri, Example 4
Description: as §1, §2, §3

[3] = system: Citrobacter freundii 8090; assay: agar serial dilution MIC; type: cell-based; settings: Example 4
Description: as §1, §2, §3

Edwardsiella tarda 15947 = assay: agar serial dilution MIC; type: cell-based; settings: Edwardsiella tarda, 15947; Example 4; read-out: MIC
Description: as §1, §2, §3

[4] = system: Enterobacter agglomerans 27155; assay: agar serial dilution MIC; type: cell-based; settings: Pantoea agglomerans, 27155; Example 4; read-out: MIC
Description: as §1, §2, §3

[5] = system: Enterobacter cloacae 13047; assay: agar serial dilution MIC; type: cell-based; settings: Example 4
Description: as §1, §2, §3

[6] = system: Enterobacter havniae 11604; assay: agar serial dilution MIC; type: cell-based; settings: Example 4
Description: as §1, §2, §3

Klebsiella ozaenae 11296 = assay: agar serial dilution MIC; type: cell-based; settings: Example 4, read-out: MIC
Description: as §1, §2, §3

[7] = system: Klebsiella pneumoniae 13883; assay: agar serial dilution MIC; type: cell-based; settings: Klebsiella pneumoniae, 13883, Example 4
Description: as §1, §2, §3

[8] = system: Klebsiella rhinoscleromatis 13884; assay: agar serial dilution MIC; type: cell-based; settings: Klebsiella pneumoniae, Example 4
Description: as §1, §2, §3

Proteus mirabilis 9921 = assay: agar serial dilution MIC; type: cell-based; settings: Example 4
Description: as §1, §2, §3

[9] = system: Providencia alcalifaciens 9886; assay: agar serial dilution MIC; type: cell-based; settings: Example 4
Description: as §1, §2, §3

[10] = system: Providencia stuartii 25825; assay: agar serial dilution MIC; type: cell-based; settings: Example 4
Description: as §1, §2, §3

[11] = system: Salmonella cholera-suis 13312; assay: agar serial dilution MIC; type: cell-based
Description: as §1, §2, §3

[12] = system: Salmonella enteritidis 13076; assay: agar serial dilution MIC; type: cell-based; settings: Salmonella enterica, Example 4
Description: as §1, §2, §3

Salmonella typhi 19430 = assay: agar serial dilution MIC; type: cell-based; settings: Salmonella enterica
Description: as §1, §2, §3

[13] = system: Serratia liquefaciens 27592; assay: agar serial dilution MIC; type: cell-based; settings: Example 4
Description: as §1, §2, §3

[14] = system: Serratia marcescens 13880; assay: agar serial dilution MIC; type: cell-based; settings: Example 4
Description: as §1, §2, §3

Serratia rubidae 27593 = assay: agar serial dilution MIC; type: cell-based; settings: Example 4
Description: as §1, §2, §3

Shigella boydii 9207 = assay: agar serial dilution MIC; type: cell-based; settings: Example 4
Description: as §1, §2, §3

Shigella flexneri 12025 = assay: agar serial dilution MIC; type: cell-based; settings: Shigella flexneri, 12025, Example 4; read-out: MIC
Description: as §1, §2, §3

Shigella sonnei 11060 = assay: agar serial dilution MIC; type: cell-based; settings: Example 4
Description: as §1, §2, §3

[15] = system: Staphylococcus aureaus CHP; assay: mice infected intraperitoneally, single dose six hours post-infection, deaths and CD50; type: in vivo; settings: for ED50: Staphylococcus
Description: Mice are infected intraperitoneally with a standardized suspension of Staphylococcus aureaus CHP in 5% gastric mucin. The animals are randomized. Six hours post-infection a single dose of the compound indicated is administered by the route indicated. The animals are observed for a 30 day period and deaths are recorded daily. The CD50 for 14 and 30 days as determined by the method of Reed and Muench, American Journal of Hygiene (1938), for each compound is tabulated:
7-[2-(5-Acetylamino-1,3,4-thiadiazol-2-ylthio)acetamido]cephalosporanic acid is tested as described in Example 5.

[16] = sc, 336 h, subcutaneous, 14 Days, single dose, mice
[17] = sc, 720 h, subcutaneous, 30 Days, single dose, mice
[18] = subcutaneous, 50 mg/kg., 14 Days
[19] = subcutaneous, 50 mg/kg., 30 Days
[20] = subcutaneous, 100 mg/kg., 14 Days
[21] = subcutaneous, 100 mg/kg., 30 Days
[22] = subcutaneous, 200 mg/kg., 14 Days
[23] = subcutaneous, 200 mg/kg., 30 Days
[24] = subcutaneous, 400 mg/kg., 14 Days
[25] = subcutaneous, 400 mg/kg., 30 Days
[26] = subcutaneous, 14 Days, single dose, mice, 20160 min

CC(=O)Nc1nnc(SCC(=O)NC2C(=O)N3C(C(=O)O)=C(COC(C)=O)CSC23)s1 (stereo not drawn) [Compound C, 7-[2-(5-acetamido-1,3,4-thiadiazol-2-ylthio)acetamido]cephalosporanic acid, reference compound]
MIC [1]: 250 µg/mL (≈ 513 µM) | MIC (Arizona arizonae 13314): 31.3 µg/mL (≈ 64.2 µM) | MIC [2]: 15.6 µg/mL (≈ 32 µM) | MIC [3]: > 250 µg/mL | MIC (Edwardsiella tarda 15947): 7.81 µg/mL (≈ 16 µM) | MIC [4]: 7.81 µg/mL (≈ 16 µM) | MIC [5]: > 250 µg/mL | MIC [6]: 250 µg/mL (≈ 513 µM) | MIC (Klebsiella ozaenae 11296): 7.81 µg/mL (≈ 16 µM) | MIC [7]: 62.5 µg/mL (≈ 128 µM) | MIC [8]: > 250 µg/mL | MIC (Proteus mirabilis 9921): 15.6 µg/mL (≈ 32 µM) | MIC [9]: > 250 µg/mL | MIC [10]: 250 µg/mL (≈ 513 µM) | MIC [11]: 15.6 µg/mL (≈ 32 µM) | MIC [12]: 31.3 µg/mL (≈ 64.2 µM) | MIC (Salmonella typhi 19430): 15.6 µg/mL (≈ 32 µM) | MIC [13]: > 250 µg/mL | MIC [14]: > 250 µg/mL | MIC (Serratia rubidae 27593): > 250 µg/mL | MIC (Shigella boydii 9207): 31.3 µg/mL (≈ 64.2 µM) | MIC (Shigella flexneri 12025): 15.6 µg/mL (≈ 32 µM) | MIC (Shigella sonnei 11060): 62.5 µg/mL (≈ 128 µM) | ED50 ([15]; po, Example 6, mice): > 7.2 mg/kg | oral activity against the test organism ([15]; oral, Example 6, mice): lack of significant oral activity

CCOc1ccc2ccccc2c1C(=O)N[C@@H]1C(=O)N2[C@@H]1SC(C)(C)[C@@H]2C(=O)O [Nafcillin]
ED50 [15, 16]: 3.12 mg/kg | ED50 [15, 17]: 3.9 mg/kg | Deaths / Total No. Treated [15, 18]: 9/10 and 10/10 | Deaths / Total No. Treated [15, 19]: 9/10 and 10/10 | Deaths / Total No. Treated [15, 20]: 9/10 and 7/10 | Deaths / Total No. Treated [15, 21]: 10/10 and 7/10 | Deaths / Total No. Treated [15, 22]: 3/10 and 4/10 | Deaths / Total No. Treated [15, 23]: 4/10 | Deaths / Total No. Treated [15, 24]: 3/10 and 4/10 | Deaths / Total No. Treated [15, 25]: 4/10 | CD50 [15, 26]: 3.41 mg/kg | CD50 ([15]; subcutaneous, 30 Days, single dose, mice, 43200 min): 3.41 mg/kg

Cc1nnc(SCC2=C(C(=O)O)N3C(=O)[C@@H](NC(=O)Cn4cnnn4)[C@H]3SC2)s1 [Cefazolin]
ED50 [15, 16]: 6.41 mg/kg | ED50 [15, 17]: 7.2 mg/kg | Deaths / Total No. Treated [15, 18]: 10/10 | Deaths / Total No. Treated [15, 19]: 10/10 | Deaths / Total No. Treated [15, 20]: 10/10 and 8/10 | Deaths / Total No. Treated [15, 21]: 10/10 | Deaths / Total No. Treated [15, 22]: 10/10 | Deaths / Total No. Treated [15, 23]: 10/10 | Deaths / Total No. Treated [15, 24]: 4/10 | Deaths / Total No. Treated [15, 25]: 5/10 | CD50 [15, 26]: 5.82 mg/kg
